Data taken from paper PMC9120478 (Nature Communications, 2022).
Residue numbers refer to the chain shown, from its start. Where “and” joins values, the source holds several entries; their conditions need not be identical. Equal entries are not always repeated.

What was measured:
TRPV3 = target: T1, TRPV3 (Mus musculus, UniProt Q8K424); assay: 2-APB concentration dependence of TRPV3 activation at two dyclonine concentrations (Schild plot); assay type: cell-based; conditions: for TRPV3 activation by 2-APB in the presence of dyclonine (Schild plot source data): listed as Dyc
T1 construct: expressed in transfected cells; host or cells: HEK 293 S GnTI- cells (baculovirus transduction)
T1 sequence (Q8K424 1-791): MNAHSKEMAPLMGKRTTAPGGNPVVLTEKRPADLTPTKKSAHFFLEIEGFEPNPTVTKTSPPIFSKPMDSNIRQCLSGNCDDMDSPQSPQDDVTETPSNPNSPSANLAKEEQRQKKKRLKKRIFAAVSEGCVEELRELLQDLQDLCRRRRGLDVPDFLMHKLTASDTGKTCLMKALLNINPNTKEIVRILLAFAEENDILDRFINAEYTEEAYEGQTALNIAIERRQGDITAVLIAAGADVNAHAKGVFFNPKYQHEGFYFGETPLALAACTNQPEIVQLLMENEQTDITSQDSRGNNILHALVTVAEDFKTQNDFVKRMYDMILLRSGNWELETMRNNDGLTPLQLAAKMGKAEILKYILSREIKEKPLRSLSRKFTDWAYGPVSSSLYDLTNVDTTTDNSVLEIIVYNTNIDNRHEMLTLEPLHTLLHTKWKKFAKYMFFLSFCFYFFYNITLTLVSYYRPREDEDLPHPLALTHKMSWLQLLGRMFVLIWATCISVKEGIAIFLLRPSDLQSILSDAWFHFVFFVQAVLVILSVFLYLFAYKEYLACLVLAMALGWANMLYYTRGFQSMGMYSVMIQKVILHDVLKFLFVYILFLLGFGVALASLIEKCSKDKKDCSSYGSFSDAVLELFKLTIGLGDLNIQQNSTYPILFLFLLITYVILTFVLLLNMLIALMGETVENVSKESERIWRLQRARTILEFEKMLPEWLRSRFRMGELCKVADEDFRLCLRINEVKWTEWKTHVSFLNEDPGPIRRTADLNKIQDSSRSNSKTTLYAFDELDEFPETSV
Experimental: (§1) GFP-free C-terminally strep-tagged wild-type TRPV3, TRPV3-Y564A, TRPV3-Y594A, TRPV3-F633A, TRPV3-I663W, and TRPV3-F666A were expressed in HEK 293 S GnTI^− cells as previously described[41],[42],[53]. In short, 48 h after transduction, 1-ml aliquots of cell suspension were collected by centrifugation at 550 g for 5 min using an Eppendorf 5424 centrifuge. The cells were resuspended in the pre-warmed modified HEPES-buffered saline (HBS) containing 118 mM NaCl, 4.8 mM KCl, 1 mM MgCl2, 5 mM D-glucose, and 10 mM HEPES pH 7.4 and 5 μg/ml Fura-2 AM (Thermo Fisher Scientific) and incubated for 45 min at 37 °C. The Fura-2-loaded cells were then centrifuged for 5 min at 550 g, resuspended in the pre-warmed, modified HBS and incubated again for 30 min at 37 °C in the dark. The cells were subsequently pelleted and washed twice in the modified HBS. The washed cell pellets were kept on ice in the dark before taking an aliquot for fluorescence measurements. […] We used the lower CaCl2 concentration than before[42],[28] (2.5 mM) to minimize non-specific effects, which often appeared as a drift in the Fura-2 signal at high Ca^2+ concentration, presumably due to cell death as a result of calcium overload. Fluorescence measurements were conducted using a QuantaMaster 40 spectrofluorometer (Photon Technology International) at room temperature in a quartz cuvette under constant stirring. After 60 s since the beginning, the recording was paused and 2-APB was added. After the addition of 2-APB, the recording was continued for the additional 140 s. Changes in intracellular Ca^2+ were measured by taking the ratio of fluorescence emitted at 510 nm at the excitation wavelength of 340 nm and 380 nm. […] The data were processed using Origin 9.0 (OriginLab) software.

TRPV3-I663W = target: T2, TRPV3-I663W (Mus musculus, UniProt Q8K424, I663W); assay: Fura-2 ratiometric Ca2+ uptake, inhibition of 2-APB-evoked response; assay type: cell-based; conditions: n = 3
T2 construct: expressed in transfected cells; host or cells: HEK 293 S GnTI- cells (baculovirus transduction)
T2 sequence (Q8K424 1-791 I663W): T1 sequence (Q8K424 1-791) with I663W
Description: The portal site in TRPV3 has not been previously shown to bind small-molecule inhibitors. This site, however, was originally proposed to be an entry pathway for local anesthetics to the pore of sodium channels[47]–[49] and found to accommodate cannabidiol in TRPV2, a closely-related representative of the vanilloid subfamily of TRP channels. […] We concluded that the Y594A mutation altered gating properties of TRPV3 and excluded this mutant from further analysis.
as §1

CCCCOc1ccc(C(=O)CCN2CCCCC2)cc1 [dyclonine, 1-(4-butoxyphenyl)-3-piperidin-1-ylpropan-1-one]
TRPV3 activation by 2-APB in the presence of dyclonine (Schild plot source data) (TRPV3; 60 mM Dyc, 2-APB Conc 20, single experiments): 0.167 and 0.154 and 0.168
TRPV3 activation by 2-APB in the presence of dyclonine (Schild plot source data) (TRPV3; 60 mM Dyc, 2-APB Conc 40, single experiments): 0.144 and 0.213 and 0.179
TRPV3 activation by 2-APB in the presence of dyclonine (Schild plot source data) (TRPV3; 60 mM Dyc, 2-APB Conc 80, single experiments): 0.244 and 0.241 and 0.22
TRPV3 activation by 2-APB in the presence of dyclonine (Schild plot source data) (TRPV3; 60 mM Dyc, 2-APB Conc 160, single experiments): 0.294 and 0.283
TRPV3 activation by 2-APB in the presence of dyclonine (Schild plot source data) (TRPV3; 2-APB Conc 10, single experiments): 0.194 and 0.175 and 0.157
TRPV3 activation by 2-APB in the presence of dyclonine (Schild plot source data) (TRPV3; 2-APB Conc 20, single experiments): 0.323 and 0.34 and 0.318
TRPV3 activation by 2-APB in the presence of dyclonine (Schild plot source data) (TRPV3; 2-APB Conc 40, single experiments): 0.542 and 0.419 and 0.487
TRPV3 activation by 2-APB in the presence of dyclonine (Schild plot source data) (TRPV3; 2-APB Conc 80, single experiments): 0.804 and 0.786 and 0.853
competition between 2-APB and dyclonine (Schild plots) (TRPV3; 10 and 60 μM dyclonine): lack of obvious competition
IC50 (TRPV3-I663W; 200 µM 2-APB, read-out: IC50, inhibition of I663W mutant): 31.5 ± 1.6 µM
nHill of inhibition curve, I663W (TRPV3-I663W; logistic fit): 1.63 ± 0.07
